Structures can show the parent of a compound that is named as a salt. Where two headings read alike, the source gives them in different places.

Data set [1] deals with experimental malignancies. The note with it: in vivo; cited from earlier work.
The next data set is described as follows: pKa. The data set is classed as physicochemical. The note with it: for pKa (first value) / pKa (second value) / pKa (third value): 66% DMF.
For data set [2], the system named is human leukemic cells (CCRF-CEM cell line). Briefly: CCRF-CEM Cytotoxicity Assay (72 h, Coulter particle counter). In kind it is cell-based. Particulars: 37° C., read-out: IC50 (concentration giving 50% growth inhibition). How it is done: The CEM cells were grown in RPMI 1640 media (MA Bioproducts) at 37° C. in humidified atmospheric conditions of 95% air and 5% CO2. The cells were grown in static suspension and maintained in log growth phase at a concentration of 3-7×10^5 cells/ml. The cells were dispersed in wells at a concentration of 4.8×10^4 /well. The drug was dissolved in dimethyl sulfoxide and was added at different dilutions to the cluster plates (wells). The cluster plates were incubated at 37° C. for 72 hours. After 72 hours the wells were read using a ZBI Coulter particle counter. Table 3 below gives the results of such testing of several compounds represented by Formula I above. In the table, Column 1 gives the name of the compound and Column 2 gives the IC50 (concentration giving 50% growth inhibition) in μg/ml.

The subject of data set [3] is P3/UCLA lung adenocarcinoma xenografts. Nature of the data set: in vivo test against xenografts of P3/UCLA lung adenocarcinoma in female nude mice. Particulars: days 2, 5 and 8, 28-day results. How it is done: The compounds were tested in vivo against xenografts of P3/UCLA lung adenocarcinoma in female nude mice. The test was begun by implanting each mouse with 10^7 P3/UCLA tumor cells, subcutaneously. On each of days 2, 5, and 8 after implantation, each mouse was injected with a conjugate or a compound in physiological buffered saline. Control mice were injected with saline only. The doses of conjugate or of vinca intermediate (based on vinca hydrazide content) are indicated below. The size of the tumors induced by implantation was measured on days 14, 21, and 28 after implantation. Each treatment group consisted of five mice.

The subject of data set [4] is human lung adenocarcinoma cells (P3/UCLA cell line). Nature of the data set: P3/UCLA - GIEMSA ASSAY (5 days). In kind it is cell-based. The note with it: 120 h, 37° C., free compound, read-out: IC50 (concentration giving 50% growth inhibition).
Where [5] appears, read: solvent not given, read-out: pKa (first value).
The mark [6] stands for this setting: 66% dmf, read-out: pKa (second value).
The mark [7] stands for this setting: 66% dmf, read-out: pKa (first value).
Setting [8] is: 66% dmf, read-out: pKa (third value).

On to `CCC1(O)CN2CCc3c([nH]c4ccccc34)C(C(=O)OC)(c3cc4c(cc3OC)N(C)C3C(O)(C(=O)OC)CC5(CC)C=CCN6CCC43C65)CC(C2)C1O` (stereo not shown) [4-desacetoxy-3'-hydroxyvinblastine], for which the “found active in the treatment of experimental malignancies in animals” value (from here on “found active in the treatment”) in data set [1] was “active”.

On to `CCC1(O)CC2CN(CCc3c([nH]c4ccccc34)C(C(=O)OC)(c3cc4c(cc3OC)N(C)C3C(O)(C(=O)OC)CC5(CC)C=CCN6CCC43C65)C2)C1` (stereo not shown) [4-desacetoxyvinblastine], for which the “found active in the treatment” value in data set [1] is “active”.

As usually defined, the pKa is the pH at which an ionisable group is half protonated. For `CC(=O)CCCC(=O)NCCC(=O)O` [6-[(2-Carboxyethyl)amino]-2,6-dioxohexane], the pKa in “pKa” (setting [5]) came out at 7.1.

In the case of `CCC1(O)CC2CN(CCc3c([nH]c4ccccc34)C(C(=O)OC)(c3cc4c(cc3OC)N(C)C3C(O)(C(=O)NN=C(C)CCCC(=O)O)C(O)C5(CC)C=CCN6CCC43C65)C2)C1` (stereo not shown) [Example 2, 4-Desacetyl VLB C-3 N^2-(4-carboxy-1-methylbutylidene)carboxhydrazide], in the data set “pKa”, the “pKa (first value)” value is given as 5.1, the “pKa (second value)” value stood at 6.6 and the “pKa (third value)” value was 7.7.

Turning to `CCC1(O)CC2CN(CCc3c([nH]c4ccccc34)C(C(=O)OC)(c3cc4c(cc3OC)N(C)C3C(O)(C(=O)NN=C(C)CCCCC(=O)O)C(O)C5(CC)C=CCN6CCC43C65)C2)C1` (stereo not shown) [Example 4, 4-Desacetyl VLB C-3 N^2-(5-carboxy-1-methylpentylidene)carboxhydrazide], in the data set “pKa”, the “pKa (first value)” value worked out at 5.3 and the “pKa (third value)” value amounted to 8.1. Also, the pKa in the data set “pKa” (setting [6]) came out at 7.

As to `CCC1(O)CC2CN(CCc3c([nH]c4ccccc34)C(C(=O)OC)(c3cc4c(cc3OC)N(C)C3C(O)(C(=O)NN=C(C)CCCCC(=O)O)C(O)C5(CC)C=CCN6CCC43C65)C2)C1` (stereo not shown) [Example 5, 4-Desacetyl VLB C-3 N^2-(5-carboxy-1-methylpentylidene)carboxhydrazidesulfate salt], the IC50 in data set [2] amounted to 0.2 µg/mL.

In the case of `CCC1(O)CC2CN(CCc3c([nH]c4ccccc34)C(C(=O)OC)(c3cc4c(cc3OC)N(C)C3C(O)(C(=O)NN=C(C)CCCC(=O)NCCC(=O)O)C(O)C5(CC)C=CCN6CCC43C65)C2)C1` (stereo not shown) [Example 6, 4-Desacetyl VLB C-3 N^2-(5-[(2-carboxyethyl)amino]-1-methyl-5-oxopentylidene)carboxhydrazide], the pKa stood at 5.1 in the data set “pKa” (setting [7]), 6.6 in the data set “pKa” (setting [6]) and 7.3 in the data set “pKa” (setting [8]).

For the compound `CCC1(O)CC2CN(CCc3c([nH]c4ccccc34)C(C(=O)OC)(c3cc4c(cc3OC)N(C)C3C(O)(C(=O)NN=C(C)CCCC(=O)NCCC(=O)O)C(O)C5(CC)C=CCN6CCC43C65)C2)C1` (stereo not shown) [Example 7, 4-Desacetyl VLB C-3 N^2-(5-[(2-carboxyethyl)amino]-1-methyl-5-oxopentylidene)carboxhydrazide sulfate salt], the IC50 in data set [2] came to 0.095 µg/mL.

Turning to `CCC1(O)CC2CN(CCc3c([nH]c4ccccc34)C(C(=O)OC)(c3cc4c(cc3OC)N(C)C3C(O)(C(=O)NN=C(C)CCCCC(=O)NCCC(=O)O)C(O)C5(CC)C=CCN6CCC43C65)C2)C1` (stereo not shown) [Example 8, 4-Desacetyl VLB C-3 N^2-(6-[(2-carboxyethyl)amino]-1-methyl-6-oxohexylidene)carboxhydrazide], the figures for the pKa in “pKa” (setting [7]), in “pKa” (setting [6]) and in the data set “pKa” (setting [8]) were 5, 6.2 and 7.8, respectively.

For orientation: % Inhibition means the drop in the measured response relative to a control, in per cent. Higher therefore signals a response far below the control. In the case of `CCC1(O)CC2CN(CCc3c([nH]c4ccccc34)C(C(=O)OC)(c3cc4c(cc3OC)N(C)C3C(O)(C(=O)NN=C(C)CCCCC(=O)NCCC(=O)O)C(O)C5(CC)C=CCN6CCC43C65)C2)C1` (stereo not shown) [Example 9, 4-Desacetyl VLB C-3 N^2-(6-[(2-carboxyethyl)amino]-1-methyl-6-oxohexylidene)carboxhydrazide sulfate salt], the “% Inhibition” value in data set [3] (1.00 mg/kg (based on vinca hydrazide content)) was 43%; in data set [3] (2.00 mg/kg (based on vinca hydrazide content)), 35%. For the same compound, the figures for the IC50 in data set [2] and in data set [4] were 0.068 µg/mL and 0.043 µg/mL, respectively.

For the compound `CCC1(O)CC2CN(CCc3c([nH]c4ccccc34)C(C(=O)OC)(c3cc4c(cc3OC)N(C)C3C(O)(C(=O)NNC(C)CCC(=O)O)C(O)C5(CC)C=CCN6CCC43C65)C2)C1` (stereo not shown) [Example 10, 4-Desacetyl VLB C-3 N^2-(3-carboxy-1-methylpropyl)carboxhydrazide], in “pKa”, the “pKa (first value)” value worked out at 5.3, the “pKa (second value)” value is listed as 6.9 and the “pKa (third value)” value came out at 7.9.

`CCC1(O)CC2CN(CCc3c([nH]c4ccccc34)C(C(=O)OC)(c3cc4c(cc3OC)N(C)C3C(O)(C(=O)NNC(C)CCC(=O)O)C(O)C5(CC)C=CCN6CCC43C65)C2)C1` (stereo not shown) [Example 11, 4-Desacetyl VLB C-3 N^2-(3-carboxy-1-methylpropyl)carboxhydrazide sulfate salt]: in data set [2], the IC50 amounted to 0.1 µg/mL.

`CCC1(O)CC2CN(CCc3c([nH]c4ccccc34)C(C(=O)OC)(c3cc4c(cc3OC)N(C)C3C(O)(C(=O)NNC(C)CCCCC(=O)O)C(O)C5(CC)C=CCN6CCC43C65)C2)C1` (stereo not shown) [Example 13, 4-Desacetyl VLB C-3 N^2-(5-carboxy-1-methylpentyl)carboxhydrazide sulfate salt]: the IC50 in data set [2] came out at 0.4 µg/mL.

In the case of `CCC1(O)CC2CN(CCc3c([nH]c4ccccc34)C(C(=O)OC)(c3cc4c(cc3OC)N(C)C3C(O)(C(=O)NNC(C)CCCC(=O)NCCC(=O)O)C(O)C5(CC)C=CCN6CCC43C65)C2)C1` (stereo not shown) [Example 14, 4-Desacetyl VLB C-3 N^2-(5-[(2-carboxyethyl)amino]-1-methyl-5-oxopentyl)carboxhydrazide], the values for the pKa in “pKa” (setting [7]), in “pKa” (setting [6]) and in “pKa” (setting [8]) were 5.7, 6.7 and 7.9, respectively.

As for `CCC1(O)CC2CN(CCc3c([nH]c4ccccc34)C(C(=O)OC)(c3cc4c(cc3OC)N(C)C3C(O)(C(=O)NNC(C)CCCC(=O)NCCC(=O)O)C(O)C5(CC)C=CCN6CCC43C65)C2)C1` (stereo not shown) [Example 15, 4-Desacetyl VLB C-3 N^2-(5-[(2-carboxyethyl)amino]1-methyl-5-oxopentyl)carboxhydrazide sulfate salt], in data set [2], the IC50 came to 0.046 µg/mL.

Take `CCC1(O)CC2CN(CCc3c([nH]c4ccccc34)C(C(=O)OC)(c3cc4c(cc3OC)N(C)C3C(O)(C(=O)NNC(C)CCCCC(=O)NCCC(=O)OC)C(O)C5(CC)C=CCN6CCC43C65)C2)C1` (stereo not shown) [Example 30, 4-Desacetyl VLB C-3 N^2-(6-[(3-methoxy-3-oxopropyl)amino]-1-methyl-6-oxohexyl)carboxhydrazide]: the pKa in “pKa” (setting [5]) turned out to be 5.4; in “pKa” (solvent not given, read-out: pKa (second value)) it was 7.5.

As to `CC[C@]1(O)C[C@@H]2CN(CCc3c([nH]c4ccccc34)[C@@](C(=O)OC)(c3cc4c(cc3OC)N(C)[C@H]3[C@@](O)(C(=O)OC)[C@H](OC(C)=O)[C@]5(CC)C=CCN6CC[C@]43[C@@H]65)C2)C1` [VLB, vincaleukoblastine], the “found active in the treatment” value in data set [1] is “active”.

On to `CCC1CC2CN(CCc3c([nH]c4ccccc34)C(C(=O)OC)(c3cc4c(cc3OC)N(C)C3C(O)(C(=O)OC)C(OC(C)=O)C5(CC)C=CCN6CCC43C65)C2)C1` (stereo not shown) [deoxy VLB "A"], for which the “found active in the treatment” value in data set [1] is reported as “active”.

For `CCC1(O)CN2CCc3c([nH]c4ccccc34)C(C(=O)OC)(c3cc4c(cc3OC)N(C)C3C(O)(C(=O)OC)C(OC(C)=O)C5(CC)C=CCN6CCC43C65)CC(O)(C2)C1` (stereo not shown) [leurocolombine], in data set [1], the “found active in the treatment” value is recorded as “active”.

For the compound `CC[C@]12CN3CCc4c([nH]c5ccccc45)[C@@](C(=O)OC)(c4cc5c(cc4OC)N(C=O)[C@H]4[C@@](O)(C(=O)OC)[C@H](OC(C)=O)[C@]6(CC)C=CCN7CC[C@]54[C@@H]76)C[C@@H](C3)[C@H]1O2` [leuroformine], the “found active in the treatment” value in data set [1] was “active”.

Take `CC[C@]12CN3CCc4c([nH]c5ccccc45)[C@@](C(=O)OC)(c4cc5c(cc4OC)N(C)[C@H]4[C@@](O)(C(=O)OC)[C@H](OC(C)=O)[C@]6(CC)C=CCN7CC[C@]54[C@@H]76)C[C@H](C3)[C@H]1O2` [leurosine]: in data set [1], the “found active in the treatment” value is reported as “active”.

As for `CCC1(O)CN2CCc3c([nH]c4ccccc34)C(C(=O)OC)(c3cc4c(cc3OC)N(C)C3C(O)(C(=O)OC)C(OC(C)=O)C5(CC)C=CCN6CCC43C65)CC(C2)C1O` (stereo not shown) [vincadioline], in data set [1], the “found active in the treatment” value was “active”.

For the compound `CC[C@]1(O)C[C@H]2CN(CCc3c([nH]c4ccccc34)[C@@](C(=O)OC)(c3cc4c(cc3OC)N(C=O)[C@H]3[C@@](O)(C(=O)OC)[C@H](OC(C)=O)[C@]5(CC)C=CCN6CC[C@]43[C@@H]65)C2)C1` [vincristine, leurocristine], in data set [1], the “found active in the treatment” value is “active”.

For leurosidine, the “found active in the treatment” value in data set [1] is given as “active”.
